Measurements published in ChEMBL document CHEMBL3507680, “University of Dundee, Gates Library screen for HepG2 cell viability”.

Assay: Human HepG2 cell viability assay in 384 well format
Assay type: toxicity, cell-based
Set-up: dose 125 nL, time 70.5 hour; cytotoxicity at 70.5 h: concentration not given beside the values
Conditions: HepG2 cells, read-out: Inhibition

SMILES	cytotoxicity at 70.5 h [%]
Cc1cc(C(F)(F)F)nc(CCNc2nc(C)nc3sccc23)n1	15.7
CN(Cc1cc(C(C)(C)C)n[nH]1)Cc1c[nH]nc1-c1ccc(F)cc1	-4.87
c1cncc(OC2CCN(CCn3cc4ccccc4n3)CC2)c1	-25.2
COc1ccccc1OC1CN(C(=O)Cc2c(C)nc3ccccn23)C1	2.44
CN1CCCCC1Cc1nc2c(cc1C(N)=O)CCC2 (centres undefined)	13.7
OCc1csc(N2CCCC(CO)(Cc3cccc(Cl)c3)C2)n1 (centres undefined)	12.4
N#Cc1ccccc1C(=O)N1C[C@H]2CC[C@@H]1CN(c1ncccn1)C2	18.3
COc1ccc([C@@H]2CN(c3cc(OC)nc(N)n3)C[C@H]2N(C)C)cc1	-3.33
COCc1nc(CNC2CCN(C(C)C)CC2)no1	-8.15
CC(C)c1noc(-c2ccc(N(C)C3CCOCC3)nc2)n1	10.8
CN(C)C(C(=O)N1CCN(CCn2cccc2)CC1)c1ccc(F)cc1 (centres undefined)	-3.42
c1ccc2c(c1)CC(N1CCCC(NCc3cccc4nonc34)C1)C2 (centres undefined)	-9.28
O=C(N[C@H]1CN2CCC1CC2)c1cc(Cn2cnc3ccccc32)[nH]n1	-5.02
Cc1cc(CN2CCC(c3cc(Cc4ccccc4)n[nH]3)CC2)[nH]n1	-16.6
O=c1c2ccc(Cl)cc2ncn1CCCN1CCCCC1CO (centres undefined)	-15.5
N[C@H]1CN(C(=O)Cc2ccc(Cl)c(Cl)c2)C[C@@H]1C1CC1	13.6
CCCn1c(C)c(CC(=O)NCCC(N)=O)c2c1CC(C)(C)CC2=O	11.1
c1cc(-c2cnccn2)cc(-c2ccn(CCCN3CCCCC3)n2)c1	-7.3
Cc1cc(C)c2c(N(C)CC3COCCO3)ncnc2n1 (centres undefined)	-8.16
O=C(O)c1ccccc1-c1c(-c2ccccc2)ncn1CC1CCCO1 (centres undefined)	17.5
CN(C)c1ccc(-c2ccnc3c2ccn3C)nn1	18.4
O=C1CCC2(CCN(Cc3cscn3)CC2)CN1CC1CCCO1 (centres undefined)	10.4
CCc1c(C)nn(CCNC(=O)c2cnn[nH]2)c1C	-5.63
Cc1ccccc1C1CCN(CCn2cc(-c3nccs3)nn2)C1 (centres undefined)	49.5
CCc1cc(N2CCS(=O)(=O)CC2)n2nc(C)c(C)c2n1	-5.71
N[C@@H](Cc1c[nH]cn1)C(=O)N1CCC(Oc2ccc(Cl)cc2)CC1	28.2
C[C@@H]1CN(Cc2cc(C3CCCCC3)no2)CC[C@]1(C)O	-6.92

SMILES	cytotoxicity at 70.5 h [%]
N#Cc1cccc(S(=O)(=O)N2CCCCC2CCN2CCCC2)c1 (centres undefined)	-3.74
CS(=O)(=O)N1CC[C@]2(O)CCN(c3ccnc(N)n3)C[C@@H]2C1	-0.327
COCCN1CCC2(CCC1=O)CN(c1ccnc(SC)n1)CCN2C (centres undefined)	-4.09
Cc1cc(CN(C)c2nc(-c3ccco3)nc3c2CCN(C)CC3)on1	-22.6
CSc1ncc(C(=O)N2CCN(c3ccccc3C)CC2C)cn1 (centres undefined)	-2.82
COCCC(=O)N[C@H]1CC[C@H](Nc2nccc(-c3ccncc3)n2)C1	-6.41
OC1CCN(C2CCN(c3ccc(Cn4ccnc4)cn3)CC2)CC1	-17.9
c1cnn(CC2CCN(c3nc(C4CC4)nc4c3CCNCC4)CC2)c1	-0.96
CNC(=O)[C@@H]1C[C@@H](NC(=O)CCCc2cccs2)CN1C1CCOCC1	-1.92
CN(Cc1cnc2ccccc2c1)C(=O)C(c1ccccc1F)N(C)C (centres undefined)	-10.3
COc1ccc(C(=O)N2C[C@@H](C(=O)O)[C@H](c3ccccc3)C2)c(O)c1	-8.78
CN(C)CC(=O)NC1CC(C)(C)Cc2nc(C(C)(C)C)ncc21 (centres undefined)	46.7
Cc1c[nH]c(CN(C)C(=O)[C@@]23CNC[C@@H]2CN(c2ncccn2)C3)n1	-14
Cc1nccn1CCN(C)c1nc(-c2cccnc2)nc2c1CCNC2	-3.49
CCN1CCc2[nH]cnc2C12CCN(c1ncc(C(=O)O)cc1Cl)CC2	3.78
CN(C)c1nc(NCCc2cnccn2)ncc1F	-9.9
COc1ccc(N2CCN(CC[C@H](O)c3ccccc3)CC2=O)cc1	-12.7
Cc1ccc(C)c2c(C)c(C(=O)NCCCn3ccnn3)[nH]c12	43.6
CCCS(=O)(=O)N1CCC2(CCC(=O)N(CCc3ccccc3)C2)CC1	-10.1
CCSCCNC(=O)c1cnc(-c2ccccc2)nc1O	7.82
CCCN1CCN(C(=O)c2ccc3ccccc3n2)[C@H]2CS(=O)(=O)C[C@H]21	13.2
O=C(CSc1ccccc1)Nc1cnn(CC(=O)N2CCCO2)c1	-2.01
Cc1nc(CN2C[C@@H](NS(=O)(=O)N(C)C)[C@H](C(C)C)C2)cs1	-1.78
Cc1cccc(-c2cc(-c3c(C)nn(CCO)c3C)c(C#N)c(N)n2)c1	-11.4
Cc1ccccc1C(C(=O)N(C)Cc1cnn(C)c1)N(C)C (centres undefined)	-1.08
Cc1ccc(SCCN(C)C(=O)c2cn(CCN)nn2)cc1	16.5
O=C(Cn1ccc2ccccc21)NCc1cc(N2CCOCC2)ncn1	-1.81

SMILES	cytotoxicity at 70.5 h [%]
CCc1nc(CN(C)C(=O)c2cc(NC(C)=O)ccc2Cl)no1	18.6
CN1CC2(CCCN(Cc3nnc(-c4ccccc4)o3)CC2)OC1=O (centres undefined)	-15
CC(=O)N[C@@H]1Cc2ccccc2[C@H]1Nc1ccncn1	-5.99
CCNc1ncc(C(=O)NCc2csc(C)n2)cn1	1.23
Cc1ccc(N2CCCC(c3[nH]ncc3Cc3ccccc3)C2)nn1 (centres undefined)	7.65
CCc1c(C)nc(N)nc1NCCSCc1[nH]cnc1C	-2.58
COc1cc(F)c(CN2CC[C@@](O)(C3CC3)[C@H](C)C2)cc1OC	-3.1
CCCn1ncc(C(=O)N2CCN([C@H]3CCCC[C@@H]3O)CC2)c1C	-0.657
CC(C)(C)c1ncc2c(n1)CN(C(=O)c1ccc3[nH]cnc3c1)C2	-3.17
COc1ccccc1OCCCc1cccc(C#N)n1	-1.85
COC[C@]1(O)CCN(c2cc(OC)ncn2)CC1(C)C	-11.7
CN(C)CCNC(=O)c1ccc(OC2CCN(C3CCC3)CC2)c(Cl)c1	-5.59
O=C(c1ccccc1C(F)(F)F)N1C[C@@H](CN2CCOCC2)[C@@H](CO)C1	-6.68
CCC(=O)N1CCc2[nH]cnc2C12CCN(CC1CCOC1)CC2 (centres undefined)	-9.55
CS(=O)(=O)N1CCC2(CCCN(CCCc3ccccc3)C2=O)C1 (centres undefined)	-6.93
Cc1ccc(CN(C)Cc2cc(C3CC3)[nH]n2)c(O)n1	-5.35
COCC(NC(=O)c1cnc(-c2ccncc2)nc1)c1ccnn1C (centres undefined)	-5.01
O=C(NCc1ccc2c(c1)CCCO2)c1cn2c(n1)CNCC2	5.37
CC(C)Oc1cccc(C(=O)Nc2nncs2)c1	-11.6
O=c1cc(-c2ccncc2)nc(-c2ccc(CN3CC[C@@H](O)C3)cc2)[nH]1	-11.3
COc1cccc(OCc2cc(C(=O)NC[C@@H]3CCCN3)n[nH]2)c1	0.523
Cc1ccc(CN2CCN(C3CSCCSC3)CC2CCO)o1 (centres undefined)	-6.76
c1cc(N2CCC(c3nnc(Cn4ccnc4)n3C3CC3)CC2)ccn1	-6.52
CCC1=NOC(CNCc2cnc(-c3ccccc3C)s2)C1 (centres undefined)	-6.62
CC(Cn1ccnc1)NCc1nncn1C1CCCCC1 (centres undefined)	-1.11
